Our source for the melting point values is a melting point compilation (Tetko et al.; mined from patent text by program, amines drawn as free bases though some values may be those of a salt).

In general, melting point refers to the temperature of the solid-liquid transition. `Cc1[nH]cnc1CCNC(=NCCSCc1nc[nH]c1C)NC#N`: the melting point lay in the range of 190 to 191 °C.
`Cc1ccc(C)c(C2CC(=O)c3c(C)ccnc3C2)c1` (stereo not given) registered a melting point of 95 to 96 °C.
As for `CCOC(=O)CS(=O)(=O)CCCC=C1SC=CS1`, the figure is 79.5 to 81 °C.
Then `CCCCCC1(C(=O)O)CC2=C(C1)C(C)(C)CCC2(C)C`, with 57 to 58 °C.
Then `COc1ccc(OC)c(C(=O)c2cc3ccc(OC)cc3o2)c1`, with 129 to 131 °C.
On to `c1ccc(-c2ccc(C34CCCN(CC3)C4)nn2)cc1` (stereo not given), for which the melting point fell in the range of 133 to 134 °C.
As for `NS(=O)(=O)c1ccc(C2(c3nc4cc(F)ccc4[nH]3)C=C(C(F)(F)F)NN2)cc1` (stereo not given), the figure is 309 to 310 °C; as for `C=C(C1=C(CCC(=O)O)C(O)CC1O)c1ccccc1` (stereo not given), 124 to 126 °C; as for `CC1(C(O)C(N)=O)CC=CCC1` (stereo not given), 102 to 110 °C.
As for `CNC(=O)c1ccc(Nc2nccc(-c3cccnc3)n2)cc1`, the figure is 254 to 257 °C; as for `COC1(c2cc(F)cc(S(=O)(=O)c3ccc4c(ccc(=O)n4C)c3)c2)CCOC(C)C1` (stereo not given), 85 to 88 °C.
Then `Cc1cc(C)n(-c2nc(Nc3ccccc3Cl)c3ccccc3n2)n1`, with 210 to 217 °C.
Compound `CC(=O)NC(C(=O)O)C1c2ccccc2CCc2ccccc21` (stereo not given) registered a melting point of 220 to 223 °C.
As for `N#Cc1ccc(NC(=O)c2cc(-c3ccc(F)cc3F)ccc2O)cc1`, the figure is 189 to 190 °C.
As for `COc1ccc(NC(=O)c2cc(-c3ccc(F)cc3F)ccc2O)cc1OC`, the figure is 186 to 187 °C; as for `CCCCc1nn2c(C)c(C)nc2n1Cc1ccc(-c2ccccc2-c2nnn[nH]2)cc1`, 138 to 141 °C.
Then `C#Cc1ccc(CCNC(=O)c2cc(Cl)ccc2OC)cc1S(=O)(=O)NC(=S)NC`, with 224 to 225 °C.
With `O=C(C(=O)c1ccccc1Br)c1ccc(F)cc1`, the melting point lay in the range of 72 to 78 °C.
Compound `COc1cc2c(cc1OC)/C(=N/OCc1ccc([N+](=O)[O-])cc1)CCC2` yielded a melting point of 124 to 127 °C.
Turning to `CCCO[C@@H]1C[C@@H](C(=O)NC)N(S(=O)(=O)c2ccc(Cl)c(COc3cccc4c(-n5ccnc5)cc(C)nc34)c2Cl)C1`, the melting point was 84 °C.
Then `Cc1nn(C)c(C)c1-c1ccc(OC2SCC(O)C(O)C2O)cn1` (stereo not given), with 132 °C.
As for `COC1CCC2C3CCC4CC(=NO)C(C)CC4(C)C3CCC12C` (stereo not given), the figure is 203 to 211 °C; as for `O=[N+]([O-])c1ccc(OC2OC(CO)C(O)C(OCc3ccccc3)C2O)cc1` (stereo not given), 127 °C; as for `CCN(CC)CCN(C)C1(c2ccccc2Cl)C(=O)Nc2ccc(Cl)cc21` (stereo not given), 140 °C.
Turning to `CCCCc1nc2c(N)nc3cccnc3c2n1CCNC(=O)C1CCC(=O)O1` (stereo not given), the melting point lay in the range of 153 to 154 °C.
As for `CCCCCOc1c(OC)cc([N+](=O)[O-])c2nccc(C)c12`, the figure is 54 to 55 °C; as for `C[C@H](O)[C@@H](COc1ccc(Cl)c(Cl)c1)n1cnc(C(N)=O)c1`, 115 to 121 °C.
Then `Fc1ccc(Cl)c2sc(CBr)cc12`, with 89 to 90 °C; and `CC(C)(C)OC(=O)n1c(C(=O)O)cc2ccccc21`, with 117 °C.
The compound `CC(=O)c1cn(-c2cc(C)c3[nH]c(=O)ccc3c2)c(C)n1` had a melting point of 306 to 308 °C.
As for `CCOCc1nc2c(N)nc3cccnc3c2n1CCCC(=O)N1CCOCC1`, the figure is 156 to 157 °C.
As for `COC1(c2cncnc2SC)c2ccccc2CC1(C)C` (stereo not given), the melting point was 130 to 132 °C.
As for `CC1=C(/C=C/C(C)=C/C=C/C(C)=C\C(=O)O)C(C)(C)C(O)C=C1` (stereo not given), the figure is 108 to 110 °C; as for `N#Cc1ccc(-c2ncccc2O)cc1`, 245 to 246 °C.
As to `Nc1cccc(OCc2ccccc2)c1N`, the melting point amounted to 68 °C.
Then `O=C1Nc2c(F)cc(F)cc2C1c1ncnc2nn(C3CCCC3)cc12` (stereo not given), with 296 to 297 °C.
Take `c1cn2nc(N3CCCC3)c3c(c2n1)CCCC3`: the melting point came out at 128 °C.
Then `O=C(CCCCCCc1ccccc1)c1c(O)c2cccnc2n(-c2ccccc2)c1=O`, with 153 to 154 °C.
As for `CC1NN2C=CC=NC2C1C#N` (stereo not given), the figure is 170 to 172 °C; as for `COC(=O)c1ncn2c1CN(C)C(=O)c1cc(F)ccc1-2`, 195 to 196 °C; as for `CCOC(=O)c1ccccc1N(CC(=O)N(C)c1ccccc1)C(=O)CNC(=O)Nc1cccc(C)c1`, 201 °C.
Then `CCn1c(C(O)(C2CC2)C2CC2)nc(-c2ccncc2)c1-c1ccc(Cl)cc1`, with 185 to 188 °C; and `COc1ccc2c(c1)CC(=O)N2`, with 148 to 150 °C; and `CC(C)(O)c1ccc(N2CCN(c3ccncc3)CC2)cc1`, with 234 to 235 °C.
Regarding `COc1ccc(COC(=O)CC(=O)Oc2ccc(-c3cn4c(n3)sc3ccccc34)cc2)cc1`, the melting point is 117 to 119 °C.
As for `COC(=O)c1ccc(Cl)nc1C1=NC(=O)C(C)(C(C)C)N1` (stereo not given), the figure is 102 to 104 °C.
As for `Cc1ccc(NC(=O)Oc2ccc3c(c2)NCCC3)cc1`, the figure is 128 °C.
Consider `CCOc1cccc(-c2cc3n(n2)-c2ccccc2CC3)c1`, for which the melting point lay within 99 to 100 °C.
As for `C[C@H]1CC[C@H]2C(C)(C)[C@@H](O)CC[C@]23Oc2c(c(O)cc4c2CN(C)C4=O)C[C@]13C`, the figure is 205 to 210 °C; as for `Cc1ccc(S(=O)(=O)N(C)c2ccc(Cl)cc2N)cc1`, 102 °C; as for `CC(C=O)c1ccc2cc(OCc3ccc4ccccc4n3)ccc2c1` (stereo not given), 113 to 115 °C.
`COc1cc2c(c3c1C1CCC3CC1)OC(COS(=O)(=O)c1ccc(C)cc1)C2` (stereo not given) returned a melting point of 136 to 141 °C.
Then `Cc1cc(NC(=O)C(C)(O)COc2ccc(CCCCl)cc2)ccc1[N+](=O)[O-]` (stereo not given), with 110 to 112 °C; and `CNc1ccc(CCl)cc1[N+](=O)[O-]`, with 126 to 128 °C.
The compound `CC1(C)Oc2ccc(C#N)cc2[C@@H](OC2=CC(=O)CC2)[C@@H]1O` (relative stereo) came in with a melting point of 154 to 156 °C.
As for `Cc1cc(Oc2cccc(C(F)(F)F)c2)nn1C(=O)Nc1ccccc1Cl`, the figure is 84 to 86 °C.
Then `Clc1cccc(Oc2ccc(N3CCNCC3)nc2)c1`, with 70 to 73 °C.
In turn, `O=S(=O)(Nc1cc(Cl)c(Cl)cc1Cl)C(F)(F)F` came in with a melting point of 104 to 106 °C.
As for `CCOC(=O)CCCCC1CC(n2c3ccccc3c3ccccc32)c2ccccc2N1C(=O)c1ccc(OC)cc1` (stereo not given), the figure is 167 to 168 °C.
As for `CCCCCCSc1nn2c(=O)cc(-c3ccccc3)nc2s1`, the figure is 90 to 91 °C; as for `CCc1nc(NC(=O)NS(=O)(=O)c2ccccc2OC(F)F)nc(OC)n1`, 114 to 116 °C; as for `Cc1c(-c2cccc(C#N)c2F)sc2nc(N)[nH]c(=O)c12`, 350 to 370 °C.
Then `COc1ccc(Cl)c(Oc2c(Cl)ncnc2Cl)c1`, with 88 to 89 °C; and `CN1Cc2cncn2-c2ccc(F)c(Cl)c2C1=O`, with 234 to 235 °C; and `CCCCCCCCCCCCCCCCNc1ccc(C(=O)OC)cc1`, with 74 to 75 °C.
With `CNC(=O)Nc1ccc(Cl)cc1Cl`, the melting point turned out to be 214 °C.
As for `CN(C)C(=O)CCc1ccc2c(c1)nc(N)c1nc(CO)n(CC(C)(C)O)c12`, the figure is 228 to 230 °C; as for `Nc1cc(N)c(OCC(F)(F)F)cc1OCC(F)(F)F`, 109 °C.
As for `CCCCCCOc1ccc(NC(=O)c2cnc(C(=O)OC)c(OC)c2)cc1`, the figure is 118 to 119 °C; as for `CCOC(C)COC1CCNCC1` (stereo not given), 68 to 70 °C.
Then `C=CCOc1cccc(-c2n[nH]c(-c3ccccc3C)n2)c1`, with 72 to 75 °C.
As for `Cc1nc2c(N)nc3ccccc3c2n1CCCCNS(C)(=O)=O`, the melting point lay in the range of 229 to 230 °C.
As for `CC1=Cc2cc(Br)ccc2S1(=O)=O`, the figure is 149 to 151 °C; as for `O=[N+]([O-])c1ccc2oc(-c3ccc(CN4CCOCC4)s3)nc2c1`, 149 to 151 °C.
As for `O=S1(=O)CCN2C=CC=C(c3ccc(Oc4ccc(C(F)(F)F)cc4)cc3)C2=N1`, the melting point was 253 to 255 °C.
In turn, `COCc1nnc2ccc(-c3ccccc3)nn12` had a melting point of 133 °C.
Compound `O=c1cccnn1-c1ccc2nc([C@H]3C[C@H](N4CCCCC4)C3)sc2c1` gave a melting point of 127 to 128 °C.
In the case of `O=C(O)c1cc(C(c2cc(F)ccc2F)S(=O)(=O)c2ccc(Cl)cc2)c(F)cn1` (stereo not given), the melting point was 208 to 209 °C.
Then `COc1ccc(C(=O)O)s1`, with 167 to 168 °C; and `CCC(C)(C)NC(=O)NC(C)C#N` (stereo not given), with 129 to 130 °C.
Then `Cc1ncc([N+](=O)[O-])n1CCN(CCCCN(CCn1c([N+](=O)[O-])cnc1C)CCn1c([N+](=O)[O-])cnc1C)CCn1c([N+](=O)[O-])cnc1C`, with 194 to 196 °C; and `COC(=O)[C@@H]1C[C@H](C(=O)O)Nc2cc(Cl)ccc21` (relative stereo), with 122 to 124 °C; and `OC(c1ccccc1)c1cccnn1` (stereo not given), with 130 to 135 °C.
As to `NCC(O)c1cccc(C(F)(F)F)c1` (stereo not given), the melting point amounted to 72 °C.
As for `CC(=O)N1CCN(CCOc2ccc(C3CCN(C4=Nn5c(nnc5C(F)(F)F)CC4)CC3)cc2)CC1`, the figure is 127 °C.
As for `CC(C)(C)OC(=O)N1CCC(CNC(=O)[C@@H]2CCCN2S(=O)(=O)c2ccc(Cl)c(CBr)c2Cl)CC1`, the figure is 80 °C; as for `COc1ccc(S(=O)(=O)N2Cc3ccccc3N(C(=O)c3cccc(C(F)(F)F)c3)CC2C(=O)NO)cc1` (stereo not given), 128 to 130 °C; as for `O=C(O)C1=Cc2cc(S(=O)(=O)NCCc3ccccc3)ccc2OC1C(F)(F)F` (stereo not given), 187 to 190 °C.
As for `Cc1ncccc1C(C#N)N1CCN(C(=O)CC(NC(=O)c2ccc(OCc3ccc4ccccc4n3)cc2)c2ccccc2)CC1` (stereo not given), the figure is 104 to 110 °C.
Consider `C(#Cc1cccc(-c2cnccn2)c1)c1ccncc1`, for which the melting point is 94 to 95 °C.
